The test has as its target human aldose reductase (hALR2) (Homo sapiens, UniProt P15121). The experiment in a line: inhibition of human aldose reductase (hALR2) activity, methods similar to Butera et al. The class given is biochemical. To be noted: concentration to inhibit activity by 50%, read-out: hAR-#1 (aldose). As to the method: Representative compounds of the invention are tested for their potency, selectivity and efficacy as inhibitors of human aldose reductase. […] Using this assay, the concentrations required to inhibit human aldose reductase (hALR2) activity by 50% (IC50) are determined.

Structures can show the parent of a compound that is named as a salt.

On to `Cc1ccc2c(Cc3nc4c(F)c(F)cc(F)c4s3)cn(CC(=O)O)c2n1` [Example 2, [6-methyl-3-(4,5,7-trifluoro-benzothiazol-2-ylmethyl)-pyrrolo[2,3-b]pyridin-1-yl]-acetic acid], for which the IC50 was 8 nM.

For the compound `O=C(O)Cc1cncc(Cc2nc3c(F)c(F)cc(F)c3s2)c1` [Example 8, 5-(4,5,7-trifluoro-benzothiazol-2-ylmethyl)-pyridin-3-yl-acetic acid hydrochloride], the IC50 was determined as 8 nM.

In the case of `Cc1nc(C)c(Cc2nc3c(F)c(F)cc(F)c3s2)c(C)c1CC(=O)O` [Example 9, 2,4,6-trimethyl-5-(4,5,7-trifluoro-benzothiazol-2-ylmethyl)-pyridin-3-yl-acetic acid hydrochloride], the IC50 came to 6 nM.

In the case of `CCc1c(CC(=O)O)c(C)nc(C)c1Cc1nc2c(F)c(F)cc(F)c2s1` [Example 10, 2,6-dimethyl-4-ethyl-5-(4,5,7-trifluoro-benzothiazol-2-ylmethyl)-pyridin-3-yl-acetic acid hydrochloride], the IC50 was 31 nM.

As for `CCc1ncc(Cc2nc3c(F)c(F)cc(F)c3s2)cc1CC(=O)O` [Example 11, 2-ethyl-5-(4,5,7-trifluoro-benzothiazol-2-ylmethyl)-pyridin-3-yl-acetic acid hydrochloride], the IC50 is 6 nM.

Take `O=C(O)Cc1cc(Cc2nc3c(F)c(F)cc(F)c3s2)cnc1Cc1ccccc1` [Example 12, 2-benzyl-5-(4,5,7-trifluoro-benzothiazol-2-ylmethyl)-pyridin-3-yl-acetic acid hydrochloride]: the IC50 is 5 nM.

Take `O=C(O)Cc1cc(Cc2nc3c(F)c(F)cc(F)c3s2)cnc1-c1ccccc1` [Example 13, 2-phenyl-5-(4,5,7-trifluoro-benzothiazol-2-ylmethyl)-pyridin-3-yl-acetic acid hydrochloride]: the IC50 turned out to be 8 nM.

As for `O=C(O)Cc1cnc(-c2ccccc2)c(Cc2nc3c(F)c(F)cc(F)c3s2)c1` [Example 15, 6-Phenyl-5-(4,5,7-trifluoro-benzothiazol-2-ylmethyl)-pyridin-3-yl-acetic acid hydrochloride], the IC50 came to 6 nM.

Turning to `O=C(O)Cc1cnc(Cc2ccccc2)c(Cc2nc3c(F)c(F)cc(F)c3s2)c1` [Example 16, 6-Benzyl-5-(4,5,7-trifluoro-benzothiazol-2-ylmethyl)-pyridin-3-yl-acetic acid hydrochloride], the IC50 was determined as 7 nM.

Turning to `Cc1c(CC(=O)O)csc1Cc1nc2c(F)c(F)cc(F)c2s1` [Example 24, [4-methyl-5-(4,5,7-trifluoro-benzothiazol-2-ylmethyl)-thiophen-3-yl]-acetic acid], the IC50 turned out to be 31 nM.

Consider `O=C(O)Cc1csc(Cc2nc3c(F)c(F)cc(F)c3s2)n1` [Example 25, [2-(4,5,7-Trifluoro-benzothiazol-2-ylmethyl)-thiazol-4-yl]-acetic acid], for which the IC50 is 130 nM.

These data come from patent US7361671B2, “Substituted heteroarylalkanoic acids” (The Institute for Pharmaceutical Discovery, Inc., priority 2001, dated 2008).
